From paper PMC4335020, “Single Oral Dose Pharmacokinetics of Decursin and Decursinol Angelate in Healthy Adult Men and Women” (PLoS ONE, 2015)
Like-named read-outs stand apart in the source and are kept apart here.

Assay: Single oral dose human plasma pharmacokinetics of D, DA and DOH after Cogni.Q
Type: in vivo
Details: for Cmax / Tmax / half-life / AUC(0-t): plasma
Text: Ten healthy male and 10 female subjects were recruited by public announcement in Amarillo, TX, from January 2013 to April 2013 (see Fig. 1 CONSORT diagram). The sample size for each gender was chosen without power calculation due to the lack of prior knowledge of PK parameter variance in humans. After receiving informed consent verbally and in writing, the health status of each candidate was confirmed by health questionnaire, plasma biochemistry (hepatic and renal functions), complete blood cell count (CBC), and a physical examination by a participating academic physician. Subjects with diabetes, or pregnant, perinatal and breastfeeding women were excluded. For the 48 hours preceding study visit until the final blood draw, all subjects were instructed to avoid taking any prescription or nonprescription drugs, vitamins, and herbal/dietary supplements. Each subject was compensated for participating in the study per TTUHSC IRB approved rate.
Eligible subjects arrived at our clinical facility at 0700 (7:00 am) on the test day after a fast beginning at 2200 (10:00 pm) the previous night. After a brief review of vital signs, the nurse placed an intravenous (IV) line with saline drip in one arm of each subject. A baseline pre-dose (hour 0) blood sample was drawn through the IV line; after that subjects swallowed four Cogni.Q vegicaps with 240 mL of water at hour 0 under direct supervision. Subjects stayed at the clinical facility in their room for the next 12 hours, returning at 24 and 48 hours. Blood was drawn at baseline (hour 0) and at 0.5, 1, 2, 3, 4, 6, 8, 12, 24 and 48 hours after dosing into Vacutainer Blood Collection Tube (Becton-Dickinson, Franklin Lakes, NJ. Product Number: 367874, Sodium heparin was used as anti-coagulant). Water was allowed as desired except for within the first hour after Cogni.Q consumption. All subjects received standardized meals at post-dose hours 4.5 and 9.5 but no food was allowed for at least the first 4 hours post-dose.
Plasma was prepared by centrifuging the heparinized blood at 1000 g for 15 minutes at room temperature. Urine samples (40mL) were collected within time spans of 0–4, 4–8, 8–12 and 12–24 hours (total volume of urine was recorded). All plasma and urine samples were put on dry ice immediately and then stored at -80°C freezer until analysis.
Plasma samples were extracted with a validated solid supported liquid extraction (SLE) method facilitated with a positive pressure manifold (Biotage, Charlotte, NC). Briefly, 100 μL of plasma sample was spiked with 5 μL of 10 ng/μL prednisolone (IS), diluted with 200 μL of LC-MS grade water, mixed and loaded onto ISOLUTE SLE+ 400 μL Array Well cartridges (Biotage, Charlotte, NC). A pulse of minimum positive pressure was applied to facilitate the samples absorption into the cartridges. After the samples were allowed to absorb for 5 min, the compounds were eluted with 2×500 μL tert-butyl methyl ether. The eluent was dried in a Speedvac and the resulting residue was reconstituted in 50 μL of methanol for UHPLC-MS/MS analysis.
Eight-point calibration curves were constructed for D, DA and DOH, at concentrations of 0.1, 0.5, 1, 5, 10, 20, 50 and 100 μg/L for D and DA, and at concentrations of 1, 5, 10, 50, 100, 200, 500 and 1000 μg/L for DOH, respectively. The linear range was 0.1–100 μg/L (0.3–300 nmol/L), 0.1–100 μg/L (0.3–300 nmol/L) and 1–1000 μg/L (4–4000 nmol/L) for D, DA and DOH, respectively. The inter- and intra-assay CV were lower than 6.5% and the accuracy was between 90–105%. Calibration curve was run for each batch of samples analyzed. The mean calibration curve correlation coefficient (r) for D, DA and DOH was 0.999, 0.999 and 0.998, respectively (data from 7–10 calibration curves). In addition, 70% of the plasma samples were extracted and analyzed twice, the data from two replicate analyses were nearly identical and combined for final data analyses and presentation. […]

In the case of C/C=C(/C)C(=O)O[C@H]1Cc2cc3ccc(=O)oc3cc2OC1(C)C [DA, decursinol angelate], the Cmax (all human subjects n = 20, single oral dose 4 Cogni.Q vegicaps (119 mg D, 77 mg DA), read-out: Cmax, nmol/L Mean (SD)) is reported as 48.1 nmol/L, the “variation in C max and AUC0–48h among individual subjects” value (all subjects) is reported as ≤ 60 fold and the Cmax (both sexes, human, oral, 4 Cogni.Q vegicaps, n=20 (S1 Table), read-out: Cmax, nM, Grand Mean) is reported as 48.1 nmol/L. The Tmax (both sexes, human, oral, 4 Cogni.Q vegicaps, n=20 (S1 Table), read-out: Tmax, h, Grand Mean) was 2.4 h, the half-life (both sexes, human, oral, all subjects, outliers excluded (S1 Table), read-out: Terminal t1/2, h, Grand Mean (converted)) was 19.3 h and the AUC(0-t) (both sexes, human, oral, n=20 (S1 Table), read-out: AUC0-48h, Grand Mean) was 335 nmol·h/L. For the same molecule, the Cmax (both sexes, human, po, all human subjects n = 20, single oral dose 4 Cogni.Q vegicaps (119 mg D, 77 mg DA), read-out: Cmax, nmol/L Mean (SD)) was 48 nmol/L, the Tmax (both sexes, human, po, all human subjects n = 20, single oral dose 4 Cogni.Q vegicaps (119 mg D, 77 mg DA), read-out: Tmax, h, Mean (SD)) was 2.4 h and the AUC(0-t) (both sexes, human, po, all human subjects n = 20, single oral dose Cogni.Q, plasma (Table 2), read-out: AUC0–48h, nmol/L, Mean (SD)) was 335 nmol·h/L. It also gave a half-life (both sexes, human, po, all human subjects, four outlier subjects excluded, single oral dose Cogni.Q, read-out: Terminal t1/2, h, Mean (SD) (converted)) of 19.3 h, an AUC(0-t) (both sexes, human, po, twenty healthy subjects, single oral dose Cogni.Q, plasma (abstract), read-out: mean area under the curve (AUC0-48h)) of 335 nmol·h/L and an AUC(0-t) (female, human, oral, 4 Cogni.Q vegicaps, Women n=10 (S1 Table), read-out: AUC0-48h, Mean, F) of 344 nmol·h/L. It also gave a Cmax (female, human, oral, 4 Cogni.Q vegicaps, Women n=10 (S1 Table), read-out: Cmax, nM, Mean, F) of 43.9 nmol/L, a Tmax (female, human, oral, Women n=10 (S1 Table), read-out: Tmax, h, Mean, F) of 2.7 h and a half-life (female, human, oral, Women, outliers excluded (S1 Table), read-out: Terminal t1/2, h, Mean, F (converted)) of 23.7 h. For the same molecule, the AUC(0-t) (female, human, po, Women N = 10, single oral dose Cogni.Q, read-out: AUC0–48h, h.nmol/L Mean (SD)) was 344 nmol·h/L, the Cmax (female, human, po, Women N = 10, single oral dose Cogni.Q, read-out: Cmax, nmol/L, Mean (SD)) was 43.9 nmol/L and the Tmax (female, human, po, Women N = 10, single oral dose Cogni.Q, read-out: Tmax, h, Mean (SD)) was 2.7 h. The half-life (female, human, po, Women, outlier subjects excluded, single oral dose Cogni.Q, read-out: T1/2, h, terminal Mean (SD) (converted)) was 23.7 h, the half-life (human, oral, 4 Cogni.Q vegicaps, subject S1 (115 lb), outlier, excluded from means, read-out: Terminal t1/2, h (converted)) was 20.2 h and the AUC(0-t) (human, oral, 4 Cogni.Q vegicaps, subject S1 (115 lb), read-out: AUC0-48h) was 190 nmol·h/L. For the same molecule, the Cmax (human, oral, 4 Cogni.Q vegicaps, subject S1 (115 lb), read-out: Cmax) was 23.4 nmol/L, the Tmax (human, oral, 4 Cogni.Q vegicaps, subject S1 (115 lb), read-out: Tmax) was 2 h and the AUC(0-t) (human, oral, 4 Cogni.Q vegicaps, subject S2 (194 lb), read-out: AUC0-48h) was 97.5 nmol·h/L. It also gave a Cmax (human, oral, 4 Cogni.Q vegicaps, subject S2 (194 lb), read-out: Cmax) of 13.4 nmol/L, a half-life (human, oral, 4 Cogni.Q vegicaps, subject S2 (194 lb), read-out: Terminal t1/2, h (converted)) of 38.6 h and a Tmax (human, oral, 4 Cogni.Q vegicaps, subject S2 (194 lb), read-out: Tmax) of 3 h. For the same molecule, the half-life (human, oral, 4 Cogni.Q vegicaps, subject S3 (170 lb), outlier, excluded from means, read-out: Terminal t1/2, h (converted)) was 31.4 h, the AUC(0-t) (human, oral, 4 Cogni.Q vegicaps, subject S3 (170 lb), read-out: AUC0-48h) was 142 nmol·h/L and the Cmax (human, oral, 4 Cogni.Q vegicaps, subject S3 (170 lb), read-out: Cmax) was 27.2 nmol/L. The Tmax (human, oral, 4 Cogni.Q vegicaps, subject S3 (170 lb), read-out: Tmax) was 6 h, the AUC(0-t) (human, oral, 4 Cogni.Q vegicaps, subject S4 (170 lb), read-out: AUC0-48h) was 1060 nmol·h/L and the Cmax (human, oral, 4 Cogni.Q vegicaps, subject S4 (170 lb), read-out: Cmax) was 100 nmol/L. The half-life (human, oral, 4 Cogni.Q vegicaps, subject S4 (170 lb), read-out: Terminal t1/2, h (converted)) was 17.7 h, the Tmax (human, oral, 4 Cogni.Q vegicaps, subject S4 (170 lb), read-out: Tmax) was 2 h and the AUC(0-t) (human, oral, 4 Cogni.Q vegicaps, subject S5 (161 lb), read-out: AUC0-48h) was 294 nmol·h/L. It also gave a Cmax (human, oral, 4 Cogni.Q vegicaps, subject S5 (161 lb), read-out: Cmax) of 21.4 nmol/L, a half-life (human, oral, 4 Cogni.Q vegicaps, subject S5 (161 lb), read-out: Terminal t1/2, h (converted)) of 12 h and a Tmax (human, oral, 4 Cogni.Q vegicaps, subject S5 (161 lb), read-out: Tmax) of 1 h. It also gave an AUC(0-t) (human, oral, 4 Cogni.Q vegicaps, subject S6 (120 lb), read-out: AUC0-48h) of 696 nmol·h/L, a Cmax (human, oral, 4 Cogni.Q vegicaps, subject S6 (120 lb), read-out: Cmax) of 84.3 nmol/L and a half-life (human, oral, 4 Cogni.Q vegicaps, subject S6 (120 lb), read-out: Terminal t1/2, h (converted)) of 16.2 h. For the same molecule, the Tmax (human, oral, 4 Cogni.Q vegicaps, subject S6 (120 lb), read-out: Tmax) was 3 h, the AUC(0-t) (human, oral, 4 Cogni.Q vegicaps, subject S7 (180 lb), read-out: AUC0-48h) was 432 nmol·h/L and the Cmax (human, oral, 4 Cogni.Q vegicaps, subject S7 (180 lb), read-out: Cmax) was 74.3 nmol/L. For the same molecule, the half-life (human, oral, 4 Cogni.Q vegicaps, subject S7 (180 lb), read-out: Terminal t1/2, h (converted)) was 17.4 h, the Tmax (human, oral, 4 Cogni.Q vegicaps, subject S7 (180 lb), read-out: Tmax) was 4 h and the AUC(0-t) (human, oral, 4 Cogni.Q vegicaps, subject S8 (160 lb), read-out: AUC0-48h) was 1600 nmol·h/L. The Cmax (human, oral, 4 Cogni.Q vegicaps, subject S8 (160 lb), read-out: Cmax) was 183 nmol/L, the half-life (human, oral, 4 Cogni.Q vegicaps, subject S8 (160 lb), read-out: Terminal t1/2, h (converted)) was 16.7 h and the Tmax (human, oral, 4 Cogni.Q vegicaps, subject S8 (160 lb), read-out: Tmax) was 3 h. The AUC(0-t) (human, oral, 4 Cogni.Q vegicaps, subject S9 (158 lb), read-out: AUC0-48h) was 80.8 nmol·h/L, the Cmax (human, oral, 4 Cogni.Q vegicaps, subject S9 (158 lb), read-out: Cmax) was 13.6 nmol/L and the half-life (human, oral, 4 Cogni.Q vegicaps, subject S9 (158 lb), read-out: Terminal t1/2, h (converted)) was 19.1 h.
